This note sets out measurements from patent publication US11458132B2, “Quinolin-2(1H)-one inhibitors of Late SV40 Factor” (TRUSTEES OF BOSTON UNIVERSITY, priority 2020, dated 2022).

In one series the test system is Huh7 cells. In words: Growth inhibition curves in Huh7 cells. The series is classed as cell-based. The settings on record: Homo sapiens, Huh-7.
Series [1] has as its system RPE cells. Put plainly: Microtubule sedimentation assay. It is filed as cell-based. As to the method:
(§1) Cell lysate preparation: For microtubule sedimentation assays, cells were treated as indicated in the figure legends, washed with PBS and incubated in 250 μl of microtubule sedimentation assay lysis buffer (100 mM PIPES pH 6.8, 2 M glycerol, 2 mM EGTA, 5 mM MgCl2, 0.1% Triton X-100) supplemented with 1 μM taxol, protease inhibitor cocktail (1:200, Abcam, ab201111) and phosphatase inhibitor cocktail (1:100, Abcam, ab201115) for 20 minutes at 37° C. Two hundred μl of scraped lysate was centrifuged at 21,000×g for 10 minutes at room temperature. Supernatants were saved as soluble fractions. Pellets were resuspended in 200 μl RIPA buffer (50 mM Tris HCl pH 8.0, 150 mM NaCl, 1% IGEPAL CA630, 0.05% deoxycholic acid) supplemented with 1.05% SDS, protease inhibitor cocktail (1:200) and phosphatase inhibitor cocktail (1:100) and incubated at 100° C. for 15 minutes. Pellet suspensions were centrifuged as before and supernatants were saved as pellet fractions.
(§2) Gel electrophoresis and immunoblotting: Microtubule sedimentation fractions and MLC2 analysis samples were separated by electrophoresis through tris-glycine and tricine polyacrylamide gels, respectively, which were transferred to PVDF membranes. Membranes with microtubule sedimentation fractions and MLC2 analysis samples were blocked in 5% milk in TBST and in 5% BSA in TBST, respectively. After overnight incubation with primary antibody at 4° C., the membranes were washed and incubated with secondary antibody for 1 hour at room temperature. Primary antibodies included anti-α-tubulin (1:2,000, Thermo Fisher Scientific, PA529444), anti-acetylated tubulin (1:1,000, Sigma-Aldrich, T7451), anti-phospho MYL9 (1:200, Thermo Fisher Scientific, PA517727), and anti-β-actin (1:5,000, Sigma-Aldrich, A1978). Secondary antibodies included Goat anti-Rabbit HRP (Thermo Fisher Scientific, 31460; 1:10,000 for anti-α-tubulin; 1:5,000 for anti-phospho MYL9), and Goat anti-Mouse HRP (Thermo Fisher Scientific, 62-6520; 1:5,000 for anti-acetylated tubulin; 1:10,000-1:20,000 for anti-β-actin). Membranes were placed into Pierce™ ECL Western Blotting Substrate (Thermo Fisher Scientific, 32106). Autoradiography film was exposed to each membrane for various times to ensure acquisition of non-saturated exposures. Band intensities were quantified from scanned films by densitometry using ImageJ.

Series [2] relates to FH-B cells. In words: Cell spreading area / cell compaction by microscopy. The series is classed as cell-based, human. The note with it: 1 μM nocodazole, 30-60 minutes. The method, then: (§3) Cells were washed as before, treated with Phalloidin-iFluor 488 Reagent (abcam, ab176753) for 1 hour in 1-5% BSA in PBS, followed by Hoechst 33342 (Thermo Fisher Scientific, H3570) for 5 minutes. Mounting medium (Fisher Scientific, P10144) and cover slips were applied onto dried cells. Individually discernible cells were imaged on an Olympus Fluoview 10i. Using ImageJ, the phalloidin channel was thresholded and area and circularity values were measured and integrated into swarmplots using Python's seaborn library.
For time lapse microscopy, FH-B cells in high μ-dishes were incubated with CellBrite™ Steady Membrane stain (Biotium, 30108-T) for 30-40 minutes in the environmental chamber of a Nikon C2 Si microscope at 37° C. and 5% CO2. Treatments were added to the cells through a syringe to reach final concentrations of 4 μM FQI1 or 0.01% DMSO. Immediately thereafter, a time-lapse series was acquired by imaging every 30 seconds for 30 minutes at 20× magnification.

The test system of series [3] is RPE cells. In words: Wound healing assay. The series is classed as cell-based. The note with it: 4 μM FQI1 or 1 μM nocodazole, monitored 12 hours. As to the method:
Wound healing analysis: Confluent RPE cells were synchronized by incubating with 2 mM thymidine for 18-20 hours. Two intersecting lines were drawn into the confluent cells using a pipette tip. A phase-contrast image was acquired of the intersection point (“0 h” time-point) on an Olympus IX50 inverted microscope, immediately followed by treatment with the respective inhibitor and 2 mM thymidine. Phase-contrast images of the intersection point were acquired every 2 hours for 12 hours, continuing incubation at 37° C. in 5% CO2 in-between time points. Using ImageJ, the distances between each pair of neighboring vertices of the intersection point at each time-point were measured and normalized to the “0 h” sample.
RPE-hTERT Flp-In cells, propagated in DME M:F12 media with 10% fetal bovine serum at 37° C. in a 5% CO2 humidified incubator, were grown to confluence in 6-well tissue culture plates. One day prior to performing the wound healing assay, the medium was exchanged to also include 2 mM thymidine, so that the cells would stop dividing.
A cross-shaped wound was scratched into each well, and the cells imaged by phase contrast microscopy using at 4× magnification using a Olympus IX50 Inverted microscope. Then the cell media was exchanged to include vehicle (DMSO at 0.01%), 50 nM FQI2-34, 100 nM FQI2-34, or 200 nM FQI2-34; 2 mM thymidine was maintained throughout, as well. Cells were imaged again at 2 h, 4h, 6h, and 8h, in order to measure the migration of the cells into the wound.
Each of the 4 lines across the vertices of the “X” were individually measured from each set of images using ImageJ. Relative distances of cell migration into the wound were obtained by subtracting each of the lengths for 2-8 hour timepoints from the length at the 0 hour timepoint for that line and that sample. The averages of the four changes in lengths per sample were then plotted over time for each concentration of FQI2-34, from […], using Prism software. Triplicate technical replicates were performed for each concentration.

Series [4] deals with RPE cells. Put plainly: Cell spreading area and circularity by microscopy. The series is classed as cell-based. The settings on record: 4 μM FQI1 or 1 μM nocodazole, 1 hour. The method, then:
as §3

Series [5] deals with FH-B cells. Put plainly: Microtubule sedimentation assay. It is filed as cell-based, human. The method, then:
as §1, §2

Series [6] in a line: Plasma protein binding (PPB), mouse. It is filed as in vitro ADME.
The nature of series [7]: Plasma protein binding (PPB), human. It is filed as in vitro ADME.
Another series deals with T1, LSF and β-catenin (Homo sapiens, UniProt Q12800).
T1 construct: In both these cell lines, LSF co-immunoprecipitated with β-catenin; endogenous in cells; host or cells: HT-29 and HCT-116
T1 sequence (Q12800 1-502): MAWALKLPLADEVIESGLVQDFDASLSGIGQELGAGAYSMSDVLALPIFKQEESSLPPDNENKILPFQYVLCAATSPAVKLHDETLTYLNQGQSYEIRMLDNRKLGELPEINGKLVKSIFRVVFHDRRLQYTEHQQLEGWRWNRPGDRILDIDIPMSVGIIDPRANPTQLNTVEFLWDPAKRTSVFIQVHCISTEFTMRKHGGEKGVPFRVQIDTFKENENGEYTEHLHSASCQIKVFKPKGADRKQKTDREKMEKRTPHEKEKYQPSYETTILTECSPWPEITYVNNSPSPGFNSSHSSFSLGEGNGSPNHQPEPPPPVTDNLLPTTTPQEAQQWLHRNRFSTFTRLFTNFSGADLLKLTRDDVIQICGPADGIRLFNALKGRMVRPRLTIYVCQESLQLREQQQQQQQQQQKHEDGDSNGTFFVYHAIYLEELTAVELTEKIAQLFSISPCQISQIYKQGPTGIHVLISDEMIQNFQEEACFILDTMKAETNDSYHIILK
In words: Immunoprecipitation of β-catenin probed for LSF in CRC cells. It is filed as cell-based. The settings on record: 1 μM, 16 hours, HT-29 and HCT-116 cells. An excerpt:
Immunoprecipitation: The CRC cells were harvested. Proteins of interest were immunoprecipitated using the indicated antibodies at 1:100 concentration. The eluents were resolved by SDS polyacrylamide gel electrophoresis and probed with the indicated antibodies. All the antibodies for immunoblot and immunoprecipitation were acquired from Cell Signaling and were used at the recommended concentrations.

Setting [8] is: 4 μM FQI1 (15- and 30-minute pellets), 1 μM nocodazole or taxol 30 minutes.
Where [9] appears, read: 10 μM Y-27632 30 minutes, then 4 μM FQI1 30 minutes.

Molecules are shown by their SMILES.

For the compound `CCOc1ccccc1-c1cc(=O)[nH]c2cc3c(cc12)OCO3` [FQI2], it took 141 nM to inhibit growth in the series on Huh7 cells by half (GI50). This lies in the sub-micromolar range. `COC(=O)Nc1nc2ccc(C(=O)c3cccs3)cc2[nH]1` [nocodazole, reference compound]: the “microtubule stability and α-tubulin acetylation in the microtubule fraction” value with RPE cells [1] (setting [8]) is “destabilizes and deacetylates microtubules”; in the series on FH-B cells [5] (setting [8]) it was “destabilizes and deacetylates microtubules”. In the series on FH-B cells [2], the “decrease in cell spreading area” value is given as “decrease in cell spreading area was phenocopied”. The “migration of cells into the wound” value with RPE cells [3] was “hindered RPE cells from migrating into the wound”. In the series with RPE cells [4], the circularity result was “significantly more circular in shape”. Regarding `CCCOc1cc(N(C)C)ccc1-c1cc(=O)[nH]c2cc3c(cc12)OCO3` [FQI2-134, 8-(4-(dimethylamino)-2-propoxyphenyl)-[1,3]dioxolo[4,5-g]quinolin-6(5H)-one], the GI50 – broadly, the concentration giving 50% growth inhibition – in the series with Huh7 cells was found to be 260 nM. Regarding `CCOc1cc(N(C)C)ccc1C1CC(=O)Nc2cc3c(cc21)OCCO3` (stereo not shown) [FQI-37, 9-(4-(dimethylamino)-2-ethoxyphenyl)-2,3,8,9-tetrahydro-[1,4]dioxino[2,3-g]quinolin-7(6H)-one], the fraction unbound (in general, free concentration divided by total concentration) in series [6] was 0.05; in series [7], 0.07. Besides, the “interaction of LSF and β-catenin (co-immunoprecipitation)” value at LSF and β-catenin was “consistently reduced this interaction”. Compound `CCOc1cc(F)ccc1-c1cc(=O)[nH]c2cc3c(cc12)OCO3` [FQI2F, 8-(2-ethoxy-4-fluorophenyl)-[1,3]dioxolo[4,5-g]quinolin-6(5H)-one] came in with a GI50 in the series with Huh7 cells of 56.2 nM. As to `CCOc1cc(Cl)ccc1-c1cc(=O)[nH]c2cc3c(cc12)OCO3` [FQI2Cl, 8-(2-ethoxy-4-chlorophenyl)-[1,3]dioxolo[4,5-g]quinolin-6(5H)-one], the 50% growth inhibitory concentration (GI50) with Huh7 cells turned out to be 56.2 nM.

For the compound `C[C@@H](N)[C@H]1CC[C@H](C(=O)Nc2ccncc2)CC1` [Y-27632], the “FQI1-induced decline in stable microtubules after Y-27632 pre-exposure” value in the series on RPE cells [1] (setting [9]) and in the series with FH-B cells [5] (setting [9]) was “quantitatively the same decline in stable microtubules as seen in control cells” throughout.

On to `CC(C)COc1cc(N(C)C)ccc1-c1cc(=O)[nH]c2cc3c(cc12)OCCO3` [FQI2-237, 9-(4-(dimethylamino)-2-isobutoxyphenyl)-2,3-dihydro-[1,4]dioxino[2,3-g]quinolin-7(6H)-one], for which the 50% growth inhibitory concentration (GI50) in the series with Huh7 cells came out at 467 nM.

As for `CCOc1cc(N(C)C)ccc1C1CC(=O)Nc2cc3c(cc21)OCO3` (stereo not shown) [FQI-34, 8-(4-(dimethylamino)-2-ethoxyphenyl)-7,8-dihydro-[1,3]dioxolo[4,5-g]quinolin-6(5H)-one], the fraction unbound was 0.05 in series [6] and 0.07 in series [7]. In addition, the “interaction of LSF and β-catenin (co-immunoprecipitation)” value at LSF and β-catenin is “consistently reduced this interaction”. `CCOc1cc(N(C)C)ccc1-c1cc(=O)[nH]c2cc3c(cc12)OCCO3` [FQI2-37, 9-(4-(dimethylamino)-2-ethoxyphenyl)-2,3-dihydro-[1,4]dioxino[2,3-g]quinolin-7(6H)-one]: the GI50 in the series with Huh7 cells stood at 14.2 nM. Besides, the unbound share (fraction unbound) is 0.06 in series [6] and 0.08 in series [7]. In the case of `CCOc1cc(Br)ccc1-c1cc(=O)[nH]c2cc3c(cc12)OCO3` [FQI2Br, 8-(4-bromo-2-ethoxyphenyl)-[1,3]dioxolo[4,5-g]quinolin-6(5H)-one], the GI50 in the series with Huh7 cells turned out to be 20.4 nM. For the compound `CCCOc1cc(N(C)C)ccc1-c1cc(=O)[nH]c2cc3c(cc12)OCCO3` [FQI2-137, 9-(4-(dimethylamino)-2-propoxyphenyl)-2,3-dihydro-[1,4]dioxino[2,3-g]quinolin-7(6H)-one], in the series with Huh7 cells, the concentration for 50% growth inhibition (GI50) was found to be 71 nM. `CC(C)COc1cc(N(C)C)ccc1-c1cc(=O)[nH]c2cc3c(cc12)OCO3` [FQI2-234, 8-(4-(dimethylamino)-2-isobutoxyphenyl)-[1,3]dioxolo[4,5-g]quinolin-6(5H)-one] displayed a 50% growth inhibitory concentration (GI50) in the series with Huh7 cells of 630 nM.

In the case of `CCOc1cc(C(F)(F)F)ccc1-c1cc(=O)[nH]c2cc3c(cc12)OCO3` [FQI2F3, 8-(2-ethoxy-4-(trifluoromethyl)phenyl)-[1,3]dioxolo[4,5-g]quinolin-6(5H)-one], it took 56.2 nM to inhibit growth in the series on Huh7 cells by half (GI50).
